{"source": "paper PMC12078333", "about": "“Pharmacokinetic evaluation and bioavailability of KPT-335 (Verdinexor) in cats” (Frontiers in Veterinary Science, 2025)", "assay": "Pharmacokinetics study of KPT-335 in cats (i.v. injection, p.o. capsules and tablets; UPLC-MS/MS, non-compartmental analysis)", "assay_type": "in vivo", "settings": "both sexes, cat, plasma, cats", "description": "In this study, a parallel trial design was employed, 42 adult domestic cats (21 males and 21 females), aged 1 to 2 years and weighing 2.5 ± 0.25 kg. Cats were grouped by random number, with half male and female in each group, and all cats were determined to be systemically healthy during an initial screening visit 1 week prior to the experiment. They were acclimatized to the laboratory environment for 7 days before the study commenced. During this period, they were kept in solitary cages with free access to water. Cats in the fasting group were deprived of food for 12 h prior to and 2 h following drug administration, while those in the feeding group were fed twice a day. Food and water sources were consistent throughout the trail. During and at the end of the experiment, we systematically assessed the adverse reactions by recording parameters such as body weight, behavior, and coat gloss in all test cats both before and after the trial. These observations were conducted to evaluate whether any adverse reactions occurred. All procedures were reviewed and approved by the Institutional Animal Care and Use Committee of China Agricultural University (11305-23-E-002).\nThe UPLC-MS/MS system utilized a UPLC 1290 (Agilent) paired with a Phenomenex Kinetex C18 column (50 mm × 2.1 mm, 2.6 μm) for separation at a flow rate of 0.3 mL/min. The chromatographic mobile phase comprised water (A) and acetonitrile (B), both containing 0.1% formic acid. The gradient elution program was as follows: from 0.5 to 2.5 min, 10 to 95% B; from 2.5 to 4.5 min, 95% B; from 4.5 to 4.6 min, 95 to 10% B; and from 4.6 to 6.0 min, 10% B. The injection volume was 2 μL.\nFor mass spectrometry, an Agilent 6,475-LC-TQ equipped with an electrospray ion source was used. Multiple Reaction Monitoring (MRM) was selected to quantify KPT-335 in the positive ion mode. The ion transitions monitored were m/z 443.1 → 334.0 and 443.1 → 110.1 for KPT-335, and m/z 444.1 → 334.0 for the internal standard (IS). The cone voltage and collision energy were optimized for KPT-335 and the IS individually, set at 160 V and 25 eV, respectively. The optimized parameters for the instrument included an ion source temperature of 350°C, solvent removal temperature of 320°C, capillary voltage of 3.0 kV, and a solvent gas flow rate of 300 L/h.\nThe method was developed based on prior research conducted in the laboratory ([16]) and validated in accordance with international guidelines ([17]). The calibration concentration range for KPT-335 spanned from 0.5 to 100 ng/mL, with a lower limit of quantification (LLOQ) set at 0.5 ng/mL. The squared correlation coefficient (R^2) values exceeded 0.999, indicating high linearity.\nFor sample preparation, 100 μL of plasma was mixed with 10 μL of internal standard (IS) and 900 μL of acetonitrile, followed by vortexing for 2 min. The mixture was then centrifuged at 13,400 × g at 4°C for 10 min. The supernatant was filtered through a 0.22 μm organic membrane, and the resulting sample was analyzed using UPLC-MS/MS.\nCats were divided into seven groups, with six cats in each group. In the intravenous (i.v.) group (Group 1), cats received an injection of KPT-335 at a dosage of 1 mg/kg body weight (BW), administered via a bolus through a venous infusion needle. For the oral (p.o.) administration, cats were given capsules in a fasting state at doses of 0.2 mg/kg BW (Group 2), 1 mg/kg BW (Group 3), and 2 mg/kg BW (Group 4). Additionally, tablets were administered at 1 mg/kg BW (fasting, Group 5), 1 mg/kg BW (Group 6), and 2 mg/kg BW (Group 7) in a feeding state, followed by 3 mL of water delivered with a syringe.\nFor the p.o. administration, blood samples of 1.5 mL were collected via the brachial cephalic vein prior to administration and at 0.167, 0.333, 0.5, 0.75, 1, 1.5, 2, 4, 6, 8, 12, 24, 32, and 48 h post-administration. […]", "key": {"[1]": {"settings": "iv, 1 mg/kg, i.v. 1 mg/kg BW, mean, read-out: Plasma concentration Mean"}, "[2]": {"settings": "iv, 1 mg/kg, i.v. 1 mg/kg BW, mean"}, "[3]": {"settings": "po, 0.2 mg/kg, capsule p.o. 0.2 mg/kg BW, mean, read-out: Plasma concentration Mean"}, "[4]": {"settings": "po, 0.2 mg/kg, capsule p.o. 0.2 mg/kg BW, mean"}, "[5]": {"settings": "po, 1 mg/kg, capsule p.o. 1 mg/kg BW, mean, read-out: Plasma concentration Mean"}, "[6]": {"settings": "po, 1 mg/kg, capsule p.o. 1 mg/kg BW, mean"}, "[7]": {"settings": "po, 1 mg/kg, capsule p.o. 1 mg/kg BW, individual cats 1-6, read-out: Plasma concentration"}, "[8]": {"settings": "po, 1 mg/kg, tablet p.o. 1 mg/kg BW after fasting, individual cats 1-6, read-out: Plasma concentration"}, "[9]": {"settings": "po, 1 mg/kg, tablet p.o. 1 mg/kg BW after fasting, mean, read-out: Plasma concentration Mean"}, "[10]": {"settings": "po, 1 mg/kg, tablet p.o. 1 mg/kg BW after fasting, mean"}}, "note": "Read-outs that look alike come from different tables or passages of the source.", "data": [{"smiles": "O=C(/C=C\\n1cnc(-c2cc(C(F)(F)F)cc(C(F)(F)F)c2)n1)NNc1ccccn1", "note": "[KPT-335]", "values": [{"measurement": "concentration at 0.083 h", "setting": "iv, 1 mg/kg, i.v. 1 mg/kg BW, 0.083 h, mean", "result": 844, "unit": "ng/mL"}, {"measurement": "concentration at 0.167 h", "setting": "[1]", "result": 812, "unit": "ng/mL"}, {"measurement": "concentration at 0.25 h", "setting": "iv, 1 mg/kg, i.v. 1 mg/kg BW, 0.25 h, mean", "result": 767, "unit": "ng/mL"}, {"measurement": "concentration at 0.33 h", "setting": "[2]", "result": 733, "unit": "ng/mL"}, {"measurement": "concentration at 0.5 h", "setting": "[2]", "result": 667, "unit": "ng/mL"}, {"measurement": "concentration at 0.75 h", "setting": "[2]", "result": 526, "unit": "ng/mL"}, {"measurement": "concentration at 1 h", "setting": "[1]", "result": 531, "unit": "ng/mL"}, {"measurement": "concentration at 2 h", "setting": "[1]", "result": 441, "unit": "ng/mL"}, {"measurement": "concentration at 4 h", "setting": "[1]", "result": 255, "unit": "ng/mL"}, {"measurement": "concentration at 8 h", "setting": "[2]", "result": 95.9, "unit": "ng/mL"}, {"measurement": "concentration at 12 h", "setting": "[2]", "result": 39.5, "unit": "ng/mL"}, {"measurement": "concentration at 24 h", "setting": "[2]", "result": 10.2, "unit": "ng/mL"}, {"measurement": "concentration at 32 h", "setting": "[2]", "result": 4.86, "unit": "ng/mL"}, {"measurement": "half-life", "setting": "other: i.v. and p.o., i.v. and p.o. routes, all groups, read-out: half-life (T1/2), range over all groups", "result": "3.5 to 7", "unit": "h"}, {"measurement": "concentration at 0.167 h", "setting": "[3]", "result": 1.34, "unit": "ng/mL"}, {"measurement": "concentration at 0.33 h", "setting": "[4]", "result": 6.56, "unit": "ng/mL"}, {"measurement": "concentration at 0.5 h", "setting": "[4]", "result": 13.6, "unit": "ng/mL"}, {"measurement": "concentration at 0.75 h", "setting": "[4]", "result": 20.8, "unit": "ng/mL"}, {"measurement": "concentration at 1 h", "setting": "[3]", "result": 21.5, "unit": "ng/mL"}, {"measurement": "concentration at 1.5 h", "setting": "[3]", "result": 22.9, "unit": "ng/mL"}, {"measurement": "concentration at 2 h", "setting": "[3]", "result": 22.4, "unit": "ng/mL"}, {"measurement": "concentration at 4 h", "setting": "[3]", "result": 17.9, "unit": "ng/mL"}, {"measurement": "concentration at 6 h", "setting": "[4]", "result": 15.5, "unit": "ng/mL"}, {"measurement": "concentration at 8 h", "setting": "[4]", "result": 13.9, "unit": "ng/mL"}, {"measurement": "concentration at 12 h", "setting": "[4]", "result": 9.36, "unit": "ng/mL"}, {"measurement": "concentration at 24 h", "setting": "[4]", "result": 3.49, "unit": "ng/mL"}, {"measurement": "concentration at 32 h", "setting": "[4]", "result": 3.58, "unit": "ng/mL"}, {"measurement": "concentration at 0.167 h", "setting": "[5]", "result": 4.97, "unit": "ng/mL"}, {"measurement": "concentration at 0.33 h", "setting": "[6]", "result": 39.5, "unit": "ng/mL"}, {"measurement": "concentration at 0.5 h", "setting": "[6]", "result": 100, "unit": "ng/mL"}, {"measurement": "concentration at 0.75 h", "setting": "[6]", "result": 174, "unit": "ng/mL"}, {"measurement": "concentration at 1 h", "setting": "[7]", "result": 161, "unit": "ng/mL"}, {"measurement": "concentration at 1 h", "setting": "[5]", "result": 233, "unit": "ng/mL"}, {"measurement": "concentration at 1.5 h", "setting": "[5]", "result": 250, "unit": "ng/mL"}, {"measurement": "concentration at 2 h", "setting": "[5]", "result": 227, "unit": "ng/mL"}, {"measurement": "concentration at 4 h", "setting": "[5]", "result": 153, "unit": "ng/mL"}, {"measurement": "concentration at 6 h", "setting": "[6]", "result": 79.2, "unit": "ng/mL"}, {"measurement": "concentration at 8 h", "setting": "[6]", "result": 53.1, "unit": "ng/mL"}, {"measurement": "concentration at 12 h", "setting": "[6]", "result": 24.6, "unit": "ng/mL"}, {"measurement": "concentration at 24 h", "setting": "[6]", "result": 5.57, "unit": "ng/mL"}, {"measurement": "concentration at 32 h", "setting": "[6]", "result": 1.82, "unit": "ng/mL"}, {"measurement": "concentration at 48 h", "setting": "[7]", "result": 0.69, "unit": "ng/mL"}, {"measurement": "concentration at 48 h", "setting": "[5]", "result": 0.84, "unit": "ng/mL"}, {"measurement": "AUC(0-t)", "setting": "po, 1 mg/kg, p.o., Tablet, Feeding, 1 mg/kg BW, read-out: AUClast", "result": "2270 ± 1250", "unit": "ng·h/mL"}, {"measurement": "concentration at 0.167 h", "setting": "[8]", "result": 5.51, "unit": "ng/mL"}, {"measurement": "concentration at 0.167 h", "setting": "[9]", "result": 5.66, "unit": "ng/mL"}, {"measurement": "concentration at 0.33 h", "setting": "[10]", "result": 77.5, "unit": "ng/mL"}, {"measurement": "concentration at 0.5 h", "setting": "[10]", "result": 204, "unit": "ng/mL"}, {"measurement": "concentration at 0.75 h", "setting": "[10]", "result": 223, "unit": "ng/mL"}, {"measurement": "concentration at 1 h", "setting": "[9]", "result": 227, "unit": "ng/mL"}, {"measurement": "concentration at 1.5 h", "setting": "[9]", "result": 235, "unit": "ng/mL"}, {"measurement": "concentration at 2 h", "setting": "[8]", "result": 208, "unit": "ng/mL"}, {"measurement": "concentration at 2 h", "setting": "[9]", "result": 216, "unit": "ng/mL"}, {"measurement": "concentration at 4 h", "setting": "[8]", "result": 209, "unit": "ng/mL"}, {"measurement": "concentration at 4 h", "setting": "[9]", "result": 187, "unit": "ng/mL"}, {"measurement": "concentration at 6 h", "setting": "[10]", "result": 154, "unit": "ng/mL"}, {"measurement": "concentration at 8 h", "setting": "[10]", "result": 121, "unit": "ng/mL"}, {"measurement": "concentration at 12 h", "setting": "[10]", "result": 74.1, "unit": "ng/mL"}, {"measurement": "concentration at 24 h", "setting": "[10]", "result": 15.5, "unit": "ng/mL"}]}]}
